Reference: US9359293B2, “Methods of treatment using modulators of SIRT2” (priority 2011, dated 2016)
Entries after “also recorded” stand apart in the source; their conditions may differ.

How the values were obtained:
[1] = molecular target: Sirt5 (Homo sapiens (Human), UniProt Q9NXA8); experiment: Sirtuin deacylase inhibition, HPLC assay (H3K9Su peptide); assay type: biochemical; details: 1 μM sirtuin, 1 mM NAD, 30 min pre-incubation, 10 minutes
Method: (§1) Distinct selectivity profiles were found for each of the inhibitors studied. Different concentrations of TA, TB, TH, or TM were pre-incubated with 1 μM of the sirtuin and 1 mM NAD in 20 mM Tris-HCl buffer (pH 8.0) with 1 mM dithiothreitol (DTT) at 37° C. for 30 minutes. Then 0.05 mM acyl peptides (H3K9Ac for Sirt1, Sirt2 and Sirt3; H3K9Su for Sirt5; H3K9Myr for Sirt6 and Sirt7) were added to initiate the reactions. The total reaction volume iwas […]. Then reactions were incubated at 37° C. for a certain amount of time (2 minutes for Sirt1, 10 minutes for Sirt2 and Sirt5, 30 minutes for Sirt3, and 1 hour for Sirt6 and Sirt7). The reactions were stopped by adding […] of an aqueous solution containing 200 mM HCl and 320 mM acetic acid. After centrifugation to remove precipitated proteins, the supernatant was analyzed by HPLC with a reverse phase C18 column (250×4.6 mm, 90 A, […], GraceVydac, Southborough, Mass.), with a linear gradient of 0% to 20% B for 10 minutes (1 mL/min). […] All reactions were done in duplicate.

[2] = molecular target: Sirt7 (Homo sapiens (Human), UniProt Q9NRC8); experiment: Sirtuin deacylase inhibition, HPLC assay (H3K9Myr peptide); assay type: biochemical; details: 1 μM sirtuin, 1 mM NAD, 30 min pre-incubation, 1 hour
Chain of Sirt7 (Q9NRC8 whole entry): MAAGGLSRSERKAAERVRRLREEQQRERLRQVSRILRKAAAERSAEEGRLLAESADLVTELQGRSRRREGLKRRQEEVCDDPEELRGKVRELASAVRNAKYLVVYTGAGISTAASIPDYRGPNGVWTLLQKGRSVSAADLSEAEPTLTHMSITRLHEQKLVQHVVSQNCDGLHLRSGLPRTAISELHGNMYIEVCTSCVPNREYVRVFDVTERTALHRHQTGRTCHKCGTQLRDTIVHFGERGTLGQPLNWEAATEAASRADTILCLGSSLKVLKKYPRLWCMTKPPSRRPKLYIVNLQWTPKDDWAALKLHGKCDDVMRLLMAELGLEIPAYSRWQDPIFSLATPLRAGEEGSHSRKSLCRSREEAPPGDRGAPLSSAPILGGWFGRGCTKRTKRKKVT
Method: as §1

[3] = molecular target: Sirt6 (Homo sapiens (Human), UniProt Q8N6T7); experiment: as above; assay type: biochemical; details: 1 μM sirtuin, 1 mM NAD, 30 min pre-incubation, 1 hour
Chain of Sirt6 (Q8N6T7 whole entry): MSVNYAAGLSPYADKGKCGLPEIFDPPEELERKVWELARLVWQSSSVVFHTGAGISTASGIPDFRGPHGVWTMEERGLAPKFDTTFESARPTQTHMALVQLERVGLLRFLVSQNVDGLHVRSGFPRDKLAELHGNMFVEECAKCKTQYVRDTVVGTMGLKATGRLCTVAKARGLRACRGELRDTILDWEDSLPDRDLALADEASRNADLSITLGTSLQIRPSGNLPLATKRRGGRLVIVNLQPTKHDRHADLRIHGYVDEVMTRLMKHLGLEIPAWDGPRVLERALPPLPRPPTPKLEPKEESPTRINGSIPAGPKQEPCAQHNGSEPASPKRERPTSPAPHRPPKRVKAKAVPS
Method: as §1

[4] = molecular target: Sirt3 (Homo sapiens (Human), UniProt Q9NTG7); experiment: Sirtuin deacylase inhibition, HPLC assay (H3K9Ac peptide); assay type: biochemical; details: 1 μM sirtuin, 1 mM NAD, 30 min pre-incubation
Chain of Sirt3 (Q9NTG7 whole entry): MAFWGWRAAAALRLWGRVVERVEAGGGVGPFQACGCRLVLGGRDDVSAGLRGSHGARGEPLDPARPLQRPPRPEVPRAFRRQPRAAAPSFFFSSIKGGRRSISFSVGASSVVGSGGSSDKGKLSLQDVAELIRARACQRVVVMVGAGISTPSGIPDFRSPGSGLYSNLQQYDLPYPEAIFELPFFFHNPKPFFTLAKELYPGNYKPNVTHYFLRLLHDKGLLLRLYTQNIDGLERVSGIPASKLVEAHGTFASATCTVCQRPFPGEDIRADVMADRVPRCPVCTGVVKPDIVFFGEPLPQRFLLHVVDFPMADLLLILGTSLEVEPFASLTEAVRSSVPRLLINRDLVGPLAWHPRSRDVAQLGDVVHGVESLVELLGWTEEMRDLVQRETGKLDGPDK
Method: as §1

[5] = molecular target: Sirt1 (Homo sapiens (Human), UniProt Q96EB6); experiment: as above; assay type: biochemical; details: for IC50: 1 μM sirtuin, 1 mM NAD, 30 min pre-incubation, H3K9Ac, 2 minutes; for inhibition of Sirt1 (in words): summary of Table 1
Chain of Sirt1 (Q96EB6 whole entry): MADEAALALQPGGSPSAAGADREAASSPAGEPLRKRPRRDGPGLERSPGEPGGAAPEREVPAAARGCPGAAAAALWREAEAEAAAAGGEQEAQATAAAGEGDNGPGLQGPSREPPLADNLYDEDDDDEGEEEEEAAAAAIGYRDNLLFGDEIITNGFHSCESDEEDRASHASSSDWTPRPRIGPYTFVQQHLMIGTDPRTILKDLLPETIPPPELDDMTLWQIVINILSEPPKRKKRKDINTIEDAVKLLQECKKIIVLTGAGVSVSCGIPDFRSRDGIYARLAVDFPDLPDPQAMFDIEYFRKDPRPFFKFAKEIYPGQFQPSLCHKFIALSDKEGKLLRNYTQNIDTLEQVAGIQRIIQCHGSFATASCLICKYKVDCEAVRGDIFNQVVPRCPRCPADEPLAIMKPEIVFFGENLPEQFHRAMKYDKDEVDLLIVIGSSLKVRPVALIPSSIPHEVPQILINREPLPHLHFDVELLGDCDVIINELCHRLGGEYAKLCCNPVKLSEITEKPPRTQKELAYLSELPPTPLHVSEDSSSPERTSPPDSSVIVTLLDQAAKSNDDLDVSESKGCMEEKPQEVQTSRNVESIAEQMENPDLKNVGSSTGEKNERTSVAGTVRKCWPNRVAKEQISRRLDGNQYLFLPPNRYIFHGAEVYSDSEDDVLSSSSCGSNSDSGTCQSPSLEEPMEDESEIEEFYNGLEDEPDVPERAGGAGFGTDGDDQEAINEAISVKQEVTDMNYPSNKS
Method: as §1, with “Then” for “Distinct selectivity profiles were found for each of the inhibitors studied. Different concentrations of TA, TB, TH, or TM were pre-incubated with 1 μM of the sirtuin and 1 mM NAD in 20 mM Tris-HCl buffer (pH 8.0) with 1 mM dithiothreitol (DTT) at 37° C. for 30 minutes. Then”

[6] = molecular target: Sirt2 (Homo sapiens (Human), UniProt Q8IXJ6); experiment: as above; assay type: biochemical; details: for IC50: 1 μM sirtuin, 1 mM NAD, 30 min pre-incubation, H3K9Ac, 10 minutes
Chain of Sirt2 (Q8IXJ6 whole entry): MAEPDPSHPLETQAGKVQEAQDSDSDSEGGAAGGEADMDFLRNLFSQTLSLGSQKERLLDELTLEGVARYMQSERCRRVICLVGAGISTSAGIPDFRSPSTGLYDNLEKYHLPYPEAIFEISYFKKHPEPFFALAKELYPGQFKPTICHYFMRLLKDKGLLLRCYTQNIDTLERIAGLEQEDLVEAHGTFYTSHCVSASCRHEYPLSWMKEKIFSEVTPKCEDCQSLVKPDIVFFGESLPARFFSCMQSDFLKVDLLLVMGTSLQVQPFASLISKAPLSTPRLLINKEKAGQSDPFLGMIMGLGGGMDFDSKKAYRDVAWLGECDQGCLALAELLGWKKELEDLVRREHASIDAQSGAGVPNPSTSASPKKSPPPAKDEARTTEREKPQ
Method: as §1, with “Then” for “Distinct selectivity profiles were found for each of the inhibitors studied. Different concentrations of TA, TB, TH, or TM were pre-incubated with 1 μM of the sirtuin and 1 mM NAD in 20 mM Tris-HCl buffer (pH 8.0) with 1 mM dithiothreitol (DTT) at 37° C. for 30 minutes. Then”

[7] = system: MCF10a normal cell line; experiment: Low serum survival assay (normal cell proliferation); assay type: cell-based, human; details: 25 μM, FIG. 3(B), compared with MCF7
[8] = system: triple negative breast cancer cell line MDA-MB-231; experiment: Soft agar assay (anchorage-independent growth); assay type: cell-based; details: 25 μM, FIGS. 4(A), 4(B)
Method: Next, the ability of these inhibiting compounds to inhibit cancer cell proliferation was tested. MCF-7 and MDA-MB-231 cells (ATCC) were both maintained in RPMI 1640 media (Invitrogen®) supplemented with 10% heat-inactivated fetal bovine serum (FBS). MCF-10A (ATCC) cells were maintained in Dulbecco's Modified Eagle Medium: Nutrient Mixture F-12 (DMEM/F12) (Invitrogen®) supplemented with 10% horse serum (Invitrogen®).
The 0.6% agarose type VII (Sigma), 10% FBS and 1% Penicillin-Streptomycin (Invitrogen®) were prepared in RPMI 1640 medium, and added to a six-well culture plate (2 mL/well). The plates were kept at […] for 20 minutes to allow the agarose to solidify. Plates were then incubated at 37° C. for 5 minutes before the addition of the 1 mL soft agar/cell solution prepared by mixing 0.3% agarose type VII, 10% FBS, 1% Penicillin-Streptomycin and ˜3000 cells in RPMI 1640 medium. Again, the plates were kept at 4° C. for 20 minutes to allow the agarose to solidify. After the plates were incubated at 37° C. for 7 days, 1 mL of RPMI 1640 medium with 0.3% agarose type VII, 10% FBS and 1% Penicillin-Streptomycin was added to the plates and the plates kept at 4° C. for 20 minutes to allow the agarose to solidify. After the plates were incubated at 37° C. for another 7 days, the colony formations were examined under a microscope. All the experiments were duplicated. […]

Chain of Sirt5 (Q9NXA8 37-310): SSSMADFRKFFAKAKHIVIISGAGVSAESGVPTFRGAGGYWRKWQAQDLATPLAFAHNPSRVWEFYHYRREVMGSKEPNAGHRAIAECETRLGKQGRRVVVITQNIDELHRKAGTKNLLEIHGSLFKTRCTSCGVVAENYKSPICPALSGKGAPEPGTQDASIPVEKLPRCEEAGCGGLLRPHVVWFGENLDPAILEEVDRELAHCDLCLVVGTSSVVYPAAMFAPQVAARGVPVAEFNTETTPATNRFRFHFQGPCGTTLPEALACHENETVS

SMILES	IC50 [1] [µM]	IC50 [2] [µM]	IC50 [3] [µM]	IC50 [4] [µM]	IC50 [5] [µM]	IC50 [6] [µM]	inhibition of Sirt1 (in words) [5]	inhibition of Sirt2 (in words) ([6]; summary of Table 1)	effect on growth of MCF10a normal non-tumorigenic cells [7]	inhibition of anchorage-independent growth of MDA-MB-231 [8]
CC(=S)NCCCCC(NC(=O)OCc1ccccc1)C(=O)Nc1ccccc1 (stereo not shown) [TA]	> 205	> 205	> 205	> 205	30	105	–	–	–	–
CCCC(=S)NCCCCC(NC(=O)OCc1ccccc1)C(=O)Nc1ccccc1 (stereo not shown) [TB]	> 205	> 205	> 205	–	2.4	3	efficiently inhibit	–	–	–
CCCCCCC(=S)NCCCCC(NC(=O)OCc1ccccc1)C(=O)Nc1ccccc1 (stereo not shown) [TH]	> 205	> 205	> 205	–	0.31	0.12	efficiently inhibit	efficiently inhibit	much less than that in the MCF7 cancer cell line; also recorded: can still grow	–
CCCCCCCCCCCCCC(=S)NCCCCC(NC(=O)OCc1ccccc1)C(=O)Nc1ccccc1 (stereo not shown) [TM]	> 205	> 205	> 205	–	–	–	–	–	much less than that in the MCF7 cancer cell line; also recorded: can still grow	can inhibit the anchorage-independent growth
